From US5763198A, “Screening assays for compounds” (Sugen, Inc., priority 1994, dated 1998)
pIC50: −log10 of the molar value. Read-outs that look alike come from different tables or passages of the source.

Target: T1, EGF-R (Homo sapiens, UniProt P00533)
T1 construct: another EGFR over-expressing human epidermoid carcinoma cell line, A431 (ATCC CRL 1555); endogenous in cells; host or cells: A431 (ATCC CRL 1555)
Assay: Cell-free screening assay for EGF-R kinase activity (EGFR immobilized from A431 lysate)
Format: biochemical
Details: read-out: IC50, EGF-R kinase activity in a cell free system
Protocol: This assay provides a method for measuring the effects of test substances on the kinase activity of specific targets in a cell-free system. The target substrate is isolated from cell lysates by immobilization in microtiter plate wells coated with anti-substrate antibody. Following addition of the test substance, ATP and a bivalent cation are added to the wells to initiate the kinase-reaction. Concentrations of ATP can be varied to assess whether a test compound competes for ATP or substrate interaction. […] Phosphorylation of tyrosine residues on the immobilized target is then detected using antiphosphotyrosine antiserum.
The materials and reagents used are described in Section 6.1 with the exception that the cells used to prepare the cell lysate were another EGFR over-expressing human epidermoid carcinoma cell line, A431 (ATCC CRL 1555). Test substances were obtained from LC Service Corp (Woburn, Mass.).
Preparation of the assay plates was performed as described in Section 6.2.1.
Cells (A431) were grown to 80-90% confluency in DMEM (Gibco) plus 10% calf serum then washed twice with PBS. HNTG was added and the dish place on ice for five minutes. […] The cleared lysate can be stored at -80 C until used.
Seven μg of cell lysate was added to each well of a prepared assay plate plus PBS to make a final volume of 150 μl. […] The plate was incubated for 30 minutes, shaking, at room temperature.
The kinase reaction was initiated by the addition of 15 μl of ATP/Mn mix (in 50 mM MnCL2, final concentration of ATP 1 μM, 3 μM or 10 μM) for a total volume of […]. The plate was incubated for 5 minutes at room temperature, shaking, then washed 5 times with TBST. The amount of phosphorylation present was measured as described in Section 6.2.3.

T1 sequence (P00533 25-1210): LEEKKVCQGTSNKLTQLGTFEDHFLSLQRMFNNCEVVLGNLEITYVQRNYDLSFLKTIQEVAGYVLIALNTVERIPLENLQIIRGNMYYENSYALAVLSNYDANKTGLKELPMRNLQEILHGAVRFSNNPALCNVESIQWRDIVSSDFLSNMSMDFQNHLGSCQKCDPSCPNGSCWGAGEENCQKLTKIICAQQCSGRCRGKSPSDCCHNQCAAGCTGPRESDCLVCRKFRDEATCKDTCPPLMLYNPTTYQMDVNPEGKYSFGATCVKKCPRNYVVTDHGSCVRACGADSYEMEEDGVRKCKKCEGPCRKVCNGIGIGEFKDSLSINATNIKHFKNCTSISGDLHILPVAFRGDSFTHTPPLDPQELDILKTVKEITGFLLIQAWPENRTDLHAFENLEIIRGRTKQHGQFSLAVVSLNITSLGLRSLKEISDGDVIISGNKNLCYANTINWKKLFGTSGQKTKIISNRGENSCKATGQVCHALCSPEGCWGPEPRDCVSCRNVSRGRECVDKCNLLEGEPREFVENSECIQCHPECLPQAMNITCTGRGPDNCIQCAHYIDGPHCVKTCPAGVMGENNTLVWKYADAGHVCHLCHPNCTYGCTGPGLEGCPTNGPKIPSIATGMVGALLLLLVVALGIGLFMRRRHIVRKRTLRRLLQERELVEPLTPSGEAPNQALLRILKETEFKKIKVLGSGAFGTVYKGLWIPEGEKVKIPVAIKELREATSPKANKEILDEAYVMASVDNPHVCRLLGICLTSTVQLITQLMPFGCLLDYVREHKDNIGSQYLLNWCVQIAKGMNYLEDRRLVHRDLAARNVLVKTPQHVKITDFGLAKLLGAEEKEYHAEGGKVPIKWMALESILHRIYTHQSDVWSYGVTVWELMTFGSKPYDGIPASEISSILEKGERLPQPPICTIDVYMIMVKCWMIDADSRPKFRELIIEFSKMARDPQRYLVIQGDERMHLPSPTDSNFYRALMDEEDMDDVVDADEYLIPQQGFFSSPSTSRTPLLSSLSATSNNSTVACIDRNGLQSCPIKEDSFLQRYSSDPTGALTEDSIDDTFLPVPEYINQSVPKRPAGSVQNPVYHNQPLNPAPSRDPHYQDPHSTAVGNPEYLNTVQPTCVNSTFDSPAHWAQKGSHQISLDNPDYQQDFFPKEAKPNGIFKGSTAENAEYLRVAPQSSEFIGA

| Structure (SMILES) | pIC50 (ATP conc. 1 μM) | pIC50 (ATP conc. 3 μM) | pIC50 (ATP conc. 10 μM) |
| --- | --- | --- | --- |
| COC1C=CC=C(C)C(=O)NC2=CC(=O)C=C(C2=O)C(OC)C(C)CC(OC)C(OC)C(C)C=C(C)C1OC(N)=O (stereo not shown) [Herbimycin A] | < 4.00 |  |  |
| O=C(O)c1cc(N(Cc2ccccc2O)Cc2cc(O)ccc2O)ccc1O [Lavendustin A] | 7.10 | 7.00 | 4.26 |
